The assay concerns the target Complement factor D (Homo sapiens, UniProt P00746). Description: Inhibition Assay: Human Factor D (purified from human serum, Complement Technology, Inc.) at 80 nM final concentration was incubated with test compound at various concentrations for 5 minutes at room temperature in 50 mM Tris, 1M NaCl, pH 7.5. A synthetic substrate Z-L-Lys-SBzl and DTNB (Ellman's reagent) are added to final concentrations of 100 Î¼M each. […] IC50 values are calculated by nonlinear regression of complement Factor D reaction rates as a function of test compound concentration.

SMILES strings stand for the structures.

Sequence of Complement factor D (P00746 whole entry): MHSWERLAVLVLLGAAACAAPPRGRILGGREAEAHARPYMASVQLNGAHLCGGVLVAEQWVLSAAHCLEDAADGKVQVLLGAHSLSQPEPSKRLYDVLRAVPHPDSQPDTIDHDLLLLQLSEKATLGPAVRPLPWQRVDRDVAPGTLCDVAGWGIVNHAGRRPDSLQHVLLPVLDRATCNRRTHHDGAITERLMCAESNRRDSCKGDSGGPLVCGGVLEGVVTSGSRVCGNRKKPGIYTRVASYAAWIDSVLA

On to `CC(=O)c1nn(CC(=O)N2[C@H](C(=O)N[C@H](C)[C@H]3CC3(Cl)Cl)C[C@@]3(C)C[C@@H]23)c2ccc(-c3cnc(C)nc3)cc12`, for which the IC50 is below 1000 nM.

Source of the values: ChEMBL document CHEMBL5728082, “Aryl, heteroaryl, and heterocyclic compounds for treatment of medical disorders” (2020).
